In publication PMC8002893, “Influence of Complexation of Thiosemicarbazone Derivatives with Cu (II) Ions on Their Antitumor Activity against Melanoma Cells” (International Journal of Molecular Sciences, 2021):

Assays:
[1] = tested on: G361 human melanoma cells; test: MTT cell viability assay, G361 melanoma; type: cell-based; settings: G361, MTT test, 24 h treatment
Method: (§1) The evaluation of cytotoxicity of tested compounds was carried out on the G361, A375, and SK-MEL-28 human melanoma cells and BJ human normal fibroblast cells. The cell lines were obtained from American Type Culture Collection (ATCC, Manassas, VA, USA). The cells were cultured at 37 °C in the presence of 5% CO2 in atmosphere. The culture medium (Dulbecco’s Modified Eagle’s Medium for G361 and A375 and Eagle’s Minimum Essential Medium for SK-MEL-28 and BJ) was supplemented with 10% foetal bovine serum. The cells morphology was examined under inverted phase contrast microscope Nikon Eclipse Ti (Nikon, Tokyo, Japan). The authenticity of tested cell lines was verified by short tandem repeat (STR) genotyping in the Department of Forensic Medicine (Medical University of Lublin, Lublin, Poland).
(§2) The cells were seeded into 96-well plates (in concentration: BJ, A375, and SK-MEL-28—1 × 10^5 cells/mL, G361—1.5 × 10^5 cells/mL) and cultured until they reach 70–80% confluency. Then the cells were incubated with tested compounds and dacarbazine in concentrations ranging from 10 to 500 µM or DMSO as vehicle in control cultures for next 24 h (max. DMSO concentration <0.5%). The compounds cytotoxicity was evaluated with the MTT colorimetric method based on the ability of viable cells to the transformation of tetrazolium salts (3-[4,5-dimethylthiazol-2-yl]-2,5-) diphenyltetrazolium bromide, MTT) to purple formazan, by cellular dehydrogenases. After 24-h-incubation cell cultures were supplemented with 20 µL of 5 mg/mL MTT (Thermofisher, Waltham, MA, USA) stock in PBS (Corning, NY, USA), and the incubation was continued for 4 h at 37 °C. Next, the medium with MTT was removed, and the formed crystals were dissolved in 200 µL of DMSO (dimethyl sulfoxide, Avantor, Gliwice, Poland). The solution absorbency was measured at 570 nm, using a PowerWave™ xs microplate spectrophotometer (BioTek Instruments, Winooski, VT, USA). The experiment was performed three times with three replicates for each concentration of tested compounds. IC50 values were determined using the AAT Bioquest IC50 calculator [51]. On the basis of obtained IC50 values for normal and malignant cells, A375 cell line and three tested compounds (CuT1, Cu10, CuT16) were chosen for further investigation.

[2] = tested on: BJ human normal fibroblast cells; test: MTT cell viability assay, BJ normal fibroblasts; type: cell-based; settings: MTT test, 24 h treatment
Method: as §1, §2

[3] = tested on: A375 human melanoma cells; test: MTT cell viability assay, A375 melanoma; type: cell-based; settings: A375, MTT test, 24 h treatment
Method: as §1, §2

[4] = tested on: SK-MEL-28 human melanoma cells; test: MTT cell viability assay, SK-MEL-28 melanoma; type: cell-based; settings: SK-MEL-28, MTT test, 24 h treatment
Method: as §1, §2

IC50 ([1]; Homo sapiens, G-361) [µM]	IC50 ([3]; Homo sapiens, A-375) [µM]	IC50 ([4]; Homo sapiens) [µM]	melting point [°C]	SMILES	IC50 ([2]; Homo sapiens, Fibroblast) [µM]	also measured
488.1 ± 1.66	321 ± 2.85	> 500	–	COc1ccc(C=NNC(=S)Nc2ccccc2)cc1OC [T1]	358 ± 7.85	–
–	–	–	209 to 211	S=C(NN=Cc1ccc(Br)cc1)Nc1ccccc1Cl [T9, 2-[(4-Bromophenyl)methylidene]-N-(2-chlorophenyl)hydrazine-1-carbothioamide]	–	–
> 500	> 500	> 500	200 to 202	COc1ccc(C=NNC(=S)Nc2ccc(Cl)cc2)cc1OC [T16]	> 500	–
426 ± 4.74	413 ± 7.08	370 ± 9.46	–	CN(C)/N=N/c1[nH]cnc1C(N)=O [DTIC, dacarbazine, reference compound]	> 500	–
–	–	–	–	S=C(NN=Cc1ccc(Br)cc1)Nc1cccc(Cl)c1.[Cl-].[Cl-].[Cu+2] [CuT13]	–	IC50 [1]: 148 ± 9.77 µM; IC50 [2]: 130 ± 3.45 µM; IC50 [3]: 110 ± 2.95 µM; IC50 [4]: 119 ± 9.75 µM
370 ± 9.34	202 ± 4.87	< 500	179 to 180	COc1ccc(C=NNC(=S)Nc2ccccc2Cl)cc1OC [T10]	402 ± 13	–
–	–	–	182 to 184	S=C(NN=Cc1ccc(Br)cc1)Nc1ccc(Cl)cc1 [T18, 2-[(4-Bromophenyl)methylidene]-N-(4-chlorophenyl)hydrazine-1-carbothioamide]	–	–
396 ± 6.74	389 ± 7.06	399 ± 4.64	162 to 164	S=C(NN=Cc1ccc(Br)cc1)Nc1cccc(Cl)c1 [T13, 2-[(4-Bromophenyl)methylidene]-N-(3-chlorophenyl)hydrazine-1-carbothioamide]	412.8 ± 3.23	–
–	–	–	205 to 206	COc1ccc(C=NNC(=S)Nc2ccccc2C)cc1OC [T7, 2-[(3,4-Dimethoxyphenyl)methylidene]-N-(2-methylphenyl)hydrazine-1-carbothioamide]	–	–
–	–	–	115 to 117	CC(=NNC(=S)Nc1ccccc1Cl)c1ccccc1 [T11, N-(2-Chlorophenyl)-2-(1-phenylethylidene)hydrazine-1-carbothioamide]	–	–
–	–	–	170 to 172	CNC(=S)NN=C(C)c1ccc(N)cc1 [T4, 2-[1-(4-Aminophenyl)ethylidene]-N-methyl-hydrazine-1-carbothioamide]	–	–
–	–	–	–	S=C(NN=Cc1ccc(Cl)c(Cl)c1)Nc1ccccc1Cl.S=C(NN=Cc1ccc(Cl)c(Cl)c1)Nc1ccccc1Cl.[Cl-].[Cl-].[Cu+2] [CuT12]	–	IC50 [1]: 157 ± 2.75 µM; IC50 [2]: 42.9 ± 1.17 µM; IC50 [3]: 40.5 ± 0.98 µM; IC50 [4]: 46.1 ± 2.74 µM
–	–	–	202 to 204	S=C(NN=Cc1ccc(Cl)c(Cl)c1)Nc1ccc(Cl)cc1 [T17, N-(4-Chlorophenyl)-2-[(3,4-dichlorophenyl)methylidene]hydrazine-1-carbothioamide]	–	–
–	–	–	178 to 180	Cc1ccccc1NC(=S)NN=Cc1ccc(Br)cc1 [T6, 2-[(4-Bromophenyl)methylidene]-N-(2-methylphenyl)hydrazine-1-carbothioamide]	–	–
–	–	–	200 to 202	Cc1ccccc1NC(=S)NN=Cc1ccc(Cl)c(Cl)c1 [T8, 2-[(3,4-Dichlorophenyl)methylidene]-N-(2-methylphenyl)hydrazine-1-carbothioamide]	–	–
177 ± 4.09	112 ± 12.8	99.6 ± 5.76	210 to 211	S=C(NN=Cc1ccc(Cl)c(Cl)c1)Nc1ccccc1Cl [T12, 2-[(3,4-Dichlorophenyl)methylidene]-N-(2-chlorophenyl)hydrazine-1-carbothioamide]	129 ± 7.09	–
–	–	–	210 to 212	S=C(NN=Cc1ccc(Cl)c(Cl)c1)Nc1cccc(Cl)c1 [T15, N-(3-Chlorophenyl)-2-[(3,4-dichlorophenyl)methylidene]hydrazine-1-carbothioamide]	–	–
